Results published in ChEMBL document CHEMBL4495565, “Cytopathic SARS-Cov2 screening on VERO-E6 cells in a large repurposing effort” (2020).
Where “and” joins values, the source holds several entries; their conditions need not be identical. Equal values may be shown once. Where a name gives a salt, the structure may show the parent alone. Peptide text beside a SMILES is read from it. * marks the point of attachment. Cbz = O=C(OCc1ccccc1)*

Columns and labels:
in vitro [1] = details: chlorocebus sabaeus
Vero C1008 = details: chlorocebus sabaeus, vero c1008, 48 h
SARS-CoV-2 [2] = experiment: microbe, parasite or virus in culture; format: functional, organism-based, Chlorocebus sabaeus, Vero C1008
SARS-CoV-2 [3] = details: Chlorocebus sabaeus; Vero C1008; 10 uM
in vitro [4] = details: chlorocebus sabaeus; remark: listed apart in the source
[5] = VERO-E6 cells (Vero C1008), uninfected, CC50
[6] = Severe acute respiratory syndrome coronavirus 2, Vero C1008, 48 h

Row | Compound | CC50 (Vero C1008) | inhibition (SARS-CoV-2 [3]) | further results
1 | COc1cc2c(NC3CCN(C4CCCCC4)CC3)nc(N3CCCN(C(C)C)CC3)nc2cc1OCCCN1CCCCC1 | 18.6 µM |  | CC50 at 48 h (in vitro [1]; [5]): > 33 µM; IC50 (SARS-CoV-2 [2]; vero c1008): > 33 µM
2 | O=C(c1c2ccccc2cc2ccccc12)N1CCC(N2CCC[C@@H](C(=O)N3CCOCC3)C2)CC1 | 10.9 µM |  | CC50 at 48 h (in vitro [1]; [5]): 10.2 µM
3 | CC(=O)OC[C@]12CCC(C)=C[C@H]1O[C@@H]1[C@H](O)[C@@H](OC(C)=O)[C@@]2(C)[C@@]12CO2 |  | -0.2% | 
4 | Cc1cc(Nc2cc(N3CCN(C)CC3)nc(Sc3ccc(NC(=O)C4CC4)cc3)n2)n[nH]1 |  | 0.28% | 
5 | Nc1nc2nn[nH]c2c(=O)[nH]1 [8-AZAGUANINE] | 11.2 µM |  | CC50 at 48 h (in vitro [1]; [5]): 10.4 µM; IC50 (SARS-CoV-2 [2]; vero c1008): 3.72 µM and 10.3 µM
6 | CNCc1ccc(-c2cc(-c3nc(-c4ccc(S(=O)(=O)C(C)C)cc4)cnc3N)on2)cc1 [BERZOSERTIB] | 10 µM and > 33 µM |  | IC50 (SARS-CoV-2 [2]; vero c1008): 3.54 µM
7 | CC(=O)[C@]1(O)Cc2c(O)c3c(c(O)c2[C@@H](O[C@H]2C[C@H](N)[C@H](O)[C@H](C)O2)C1)C(=O)c1ccccc1C3=O [IDARUBICIN HYDROCHLORIDE] | 0.41 µM |  | 
8 | CC(=O)[C@]1(O)Cc2c(O)c3c(c(O)c2[C@@H](O[C@H]2C[C@H](N)[C@H](O)[C@H](C)O2)C1)C(=O)c1ccccc1C3=O [IDARUBICIN] | 0.2 µM |  | 
9 | CC(C)C[C@@H](C=O)NC(=O)[C@H](CC(C)C)NC(=O)[C@H](CC(C)C)NC(=O)OCc1ccccc1 [MG-132] (Cbz-Leu-Leu-Leu-aldehyde) | 3.04 µM |  | CC50 at 48 h (in vitro [1]; [5]): 2.9 µM; IC50 (SARS-CoV-2 [2]; vero c1008): 0.99 µM
10 | COc1ccc(-c2cc3c(C)nc(N)nc3n([C@H]3CC[C@H](OCCO)CC3)c2=O)cn1 [PF-04691502] | 0.32 µM and 0.09 µM |  | IC50 (SARS-CoV-2 [2]; [6]): 0.55 µM; IC50 (SARS-CoV-2 [2]; vero c1008): 0.8 µM
11 | CNC(=O)c1cc(Oc2ccc(NC(=O)Nc3ccc(Cl)c(C(F)(F)F)c3)c(F)c2)ccn1 [REGORAFENIB] | > 33 µM and 8.31 µM |  | IC50 (SARS-CoV-2 [2]; [6]): > 33 µM; IC50 (SARS-CoV-2 [2]; vero c1008): 24.9 µM
12 | COc1cc(C[C@H]2c3cc(OC)c(OC)cc3CCN2C)c(Oc2cc3c(cc2OC)-c2c(OC)c(OC)cc4c2[C@H](C3)N(C)CC4)cc1OC [THALICARPINE] |  |  | CC50 at 48 h (in vitro [1]; [5]): > 33 µM; IC50 (SARS-CoV-2 [2]; [6]): 3.87 µM; selectivity ratio (in vitro [4]; VERO-E6 cells, Selectivity index): 8.53
13 | CC(C)(C)c1cc(C=C(C#N)C#N)cc(C(C)(C)C)c1O [TYRPHOSTIN A9] | 7.99 µM and 1.27 µM |  | IC50 (SARS-CoV-2 [2]; vero c1008): > 33 µM
14 | O[C@@H](COc1cccc2ncccc12)CN1CCN([C@@H]2c3ccccc3[C@@H]3[C@H](c4ccccc42)C3(F)F)CC1 [ZOSUQUIDAR TRIHYDROCHLORIDE] |  |  | CC50 at 48 h (in vitro [1]; vero c1008, CC50): 9.11 µM; IC50 (SARS-CoV-2 [2]; [6]): 8.4 µM; selectivity ratio (in vitro [4]; vero c1008, Selectivity index): 1.08
15 | ACRIFLAVINE HYDROCHLORIDE |  | -0.35% | 
16 | AUROTHIOGLUCOSE |  | -0.05% | 

Row | Compound | CC50 (Vero C1008) | inhibition (SARS-CoV-2 [3]) | further results
17 | Auranofin |  | -0.39% | 
18 | CETRIMONIUM BROMIDE |  | 0.3% | 
19 | COLISTIMETHATE SODIUM |  | -0.25% | 
20 | CYANOCOBALAMIN |  | 0.04% | 
21 | ESCIN |  | -0.23% | 
22 | GADOTERIDOL |  | -0.08% | 
23 | MERBROMIN |  | 0% | 
24 | NYSTATIN |  | 0.08% | 
25 | PHENYLMERCURIC ACETATE |  | -0.23% | 
26 | Sodium orthovanadate |  | 0.13% | 
27 | TOCOFERSOLAN |  | 41.8% | 
28 | VANADATE ION |  | 0.02% | 
29 | VITAMIN E |  | 0.25% (2×) and -0.04% (2×) | 
30 | Vitamin B12 |  | 0.12% | 
31 | hemin |  | -0.12% | 
